Assay results published in article PMC10041534, “Development of Fluorescent 4-[4-(3H-Spiro[isobenzofuran-1,4′-piperidin]-1′-yl)butyl]indolyl Derivatives as High-Affinity Probes to Enable the Study of σ Receptors via Fluorescence-Based Techniques” (Journal of Medicinal Chemistry, 2023).
Values joined by “and” are separate entries in the source; they are usually repeats but may differ in a detail not shown here. Equal values may be shown once. Read-outs that look alike come from different tables or passages of the source. Marks after values point to notes of the source that are not given here.

Columns and labels:
σ2 receptor [1] = conditions: cited from earlier work
σ2 receptor [2] = target: T1, σ2 receptor (Homo sapiens, UniProt Q5BJF2); test: Flow cytometry σ2 receptor binding assay with fluorescent ligand in place of the radioligand, MCF7 cells; design: This cell line was selected on the basis of its high σ2 receptor expression levels; endogenous in cells; host or cells: MCF7 (and MCF7KO, partial TMEM97 knockdown by shRNA)
Protocol: Similarly, 2 × 10^5 MCF7 cells/well were seeded in a 12-well plate and allowed to recover for 24 h at 37 °C.
At the end of the incubation periods, cells were washed twice with PBS, detached with 200 mL of Cell Dissociation Solution (Sigma Chemical Co.) for 10 min at 37 °C, centrifuged at 13000g for 5 min, and resuspended in 500 mL of PBS. The fluorescence was recorded using a Bio-Guava easyCyte 5 Flow Cytometry System (Millipore, Billerica, MA), with a 530 nm band-pass filter. For each analysis, 50000 events were collected and analyzed with the InCyte software (Millipore).

σ1 receptor [3] = conditions: Figure 1 reference compounds and fluorescent ligands; cited from earlier work
σ2 receptor [4] = target: T2, σ2 receptor (Rattus norvegicus, UniProt Q5U3Y7); test: σ2 receptor radioligand binding assay with [3H]DTG, rat liver membranes; conditions: for σ2 selectivity over σ1: from Ki values at σ1 and σ2; for Ki: [3H]DTG with 1 μM (+)-pentazocine, rat liver membranes, mean of at least two experiments in duplicate, read-out: Ki ± SEM σ2
T2 construct: from tissue; host or cells: rat liver (Wistar Hannover rats, Envigo)
T2 sequence (Q5U3Y7 1-176): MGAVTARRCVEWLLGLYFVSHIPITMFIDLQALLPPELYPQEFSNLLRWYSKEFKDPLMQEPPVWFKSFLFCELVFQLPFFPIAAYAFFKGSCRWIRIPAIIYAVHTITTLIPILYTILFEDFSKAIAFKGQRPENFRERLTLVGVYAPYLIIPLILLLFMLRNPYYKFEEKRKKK
Protocol: (§1) All of the procedures for the binding assays were previously described. σ1 and σ2 receptor binding assays were carried out according to the literature.[25] […] Incubations were stopped by addition of 1 mL of ice-cold buffer [50 mM TRIS (pH 8.0)], and then the suspension was filtered through GF/B presoaked in 0.3% polyethylenimine (PEI) for at least 60 min prior to use. The filters were washed twice with 1 mL of ice-cold buffer. […] Incubations were stopped by addition of 1 mL of ice-cold buffer [50 mM TRIS (pH 8.0)], and then the suspension was filtered through GF/B presoaked in 0.5% polyethylenimine (PEI) for at least 60 min prior to use. The filters were washed twice with 1 mL of ice-cold buffer. […] Scatchard parameters (Kd and Bmax) and apparent inhibition constants (Ki) were determined by nonlinear curve fitting using GraphPad Prism (version 5.0).[64]

[5] = Fluorescence spectroscopy and quantum yield measurements; format: physicochemical
σ1 receptor [6] = target: T3, σ1 receptor (Cavia porcellus, UniProt Q60492); test: σ1 receptor radioligand binding assay with (+)-[3H]pentazocine, guinea pig brain membranes; conditions: mean of at least two experiments in duplicate, read-out: Ki ± SEM σ1
T3 construct: from tissue; host or cells: guinea pig brain without cerebellum (male Dunkin guinea pigs, Envigo)
Protocol: as §1

σ2 receptor [7] = target: T1, σ2 receptor; test: Flow cytometry studies in MCF7 and MCF7KO cells; format: cell-based; design: This cell line was selected on the basis of its high σ2 receptor expression levels; endogenous in cells; host or cells: MCF7 (and MCF7KO, partial TMEM97 knockdown by shRNA); conditions: flow cytometry, data not shown
Protocol: Subsequently, the cells were harvested by trypsinization and resuspended in 250 μL of FACS-PBS. The fluorescence intensity was measured by flow cytometry using a BD LSRFortessaTM X-20 cell analyzer (Becton Dickinson, Palo Alto, CA). For this, in total 20000 cells per sample were evaluated. The results were analyzed and quantified using BD FACSDivaTM software.

[8] = Figure 1 reference compounds and fluorescent ligands, read-out: σ2 Ki

T1 sequence (Q5BJF2 whole entry): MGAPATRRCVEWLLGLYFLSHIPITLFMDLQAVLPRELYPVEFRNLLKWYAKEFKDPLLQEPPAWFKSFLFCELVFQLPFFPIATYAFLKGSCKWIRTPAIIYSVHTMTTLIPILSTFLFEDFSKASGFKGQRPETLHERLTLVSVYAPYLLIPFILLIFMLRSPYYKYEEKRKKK
T3 sequence (Q60492 whole entry): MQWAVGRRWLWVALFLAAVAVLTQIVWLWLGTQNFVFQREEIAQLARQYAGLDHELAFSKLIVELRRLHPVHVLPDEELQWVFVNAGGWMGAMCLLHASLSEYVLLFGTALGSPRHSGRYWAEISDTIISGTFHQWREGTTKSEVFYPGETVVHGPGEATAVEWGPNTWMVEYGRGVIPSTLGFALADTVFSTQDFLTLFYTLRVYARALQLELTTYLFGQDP

COc1cc2c(cc1OC)CN(CCCN1CCc3c(OC)cccc3C1=O)CC2 [Compound 2]
Ki (σ2 receptor [1]; [8]): 4.24 nM
Ki (σ2 receptor [2]; displacement of compound 19 (100 nM)): 4.07 nM
Ki (σ2 receptor [2]; displacement of compound 29 (100 nM)): 5.04 nM
Ki (σ1 receptor [3]): 2440 nM

COc1cc2c(cc1OC)CN(CCCN1CCc3c(OCCCCCCN4C(=O)c5ccc(N(C)C)cc5C4=O)cccc3C1=O)CC2 [Compound 3]
Ki (σ1 receptor [3]): > 5000 nM

CC1CCN(CCCCc2cccc3cc(OCCCCCCN4C(=O)c5ccc(N(C)C)cc5C4=O)ccc23)CC1 [Compound 5]
Ki (σ2 receptor [1]; [8]): 45.6 nM
Ki (σ1 receptor [3]): 5.2 nM

c1ccc2c(c1)COC21CCN(CCCCn2ccc3ccccc32)CC1 [Compound 8, reference compound]
σ2 selectivity over σ1 (σ2 receptor [4]): 60 fold
Ki (σ2 receptor [1]; [8]): 0.43 nM

CN(C)c1ccc2c(c1)C(=O)N(CCCn1cc(CCCCN3CCC4(CC3)OCc3ccccc34)c3ccccc31)C2=O [Compound 16, 2-(3-{3-[4-(3H-Spiro[isobenzofuran-1,4′-piperidin]-1′-yl)butyl]-1H-indol-1-yl}propyl)-5-(dimethylamino)isoindoline-1,3-dione]
Ki (σ2 receptor [4]): 10.1 ± 1.1 nM
σ2 selectivity over σ1 (σ2 receptor [4]): 3–10 fold
quantum yield ([5]; CHCl3): 6.85%
λem ([5]; CHCl3): 490 nm
λex ([5]; CHCl3): 395 nm
Ki (σ1 receptor [6]): 39.3 ± 9 nM
signals in MCF7 cells (σ2 receptor [7]): dose-dependent signals
signals in MCF7 cells upon administration of 2 (σ2 receptor [7]): abated

CN(C)c1ccc2c(c1)C(=O)N(CCCCCCn1cc(CCCCN3CCC4(CC3)OCc3ccccc34)c3ccccc31)C2=O [Compound 17, 2-(6-{3-[4-(3H-Spiro[isobenzofuran-1,4′-piperidin]-1′-yl)butyl]-1H-indol-1-yl}hexyl)-5-(dimethylamino)isoindoline-1,3-dione]
Ki (σ2 receptor [4]): 3.84 ± 0.8 nM
σ2 selectivity over σ1 (σ2 receptor [4]): 3–10 fold
quantum yield ([5]; CHCl3): 6.85% and 6.80%
λem ([5]; CHCl3): 490 nm
λex ([5]; CHCl3): 395 nm
Ki (σ1 receptor [6]): 38.1 ± 5.2 nM
signals in MCF7 cells (σ2 receptor [7]): dose-dependent signals
signals in MCF7 cells upon administration of 2 (σ2 receptor [7]): abated

O=C(COc1ccc(-c2ccc3n2[B-](F)(F)[N+]2=C(c4cccs4)C=CC2=C3)cc1)NCCCCCCn1cc(CCCCN2CCC3(CC2)OCc2ccccc23)c2ccccc21 [Compound 18, N-(6-{3-[4-(3H-Spiro[isobenzofuran-1,4′-piperidin]-1′-yl)butyl]-1H-indol-1-yl}hexyl)-2-{4-[5,5-difluoro-7-(thiophen-2-yl)-5H-5λ^4,6λ^4-dipyrrolo[1,2-c:2′,1′-f][1,3,2]diazaborinin-3-yl]phenoxy}acetamide]
Ki (σ2 receptor [4]): 220 ± 12 nM
λem ([5]; dissolved in CH3OH): 630 ^b nm
λex ([5]; dissolved in CH3OH): 587 ^b nm
Ki (σ1 receptor [6]): 473 ± 30 nM

C[N+]1=C(/C=C/C=C/C=C/C=C2\N(CCCCCC(=O)NCCCCCCn3cc(CCCCN4CCC5(CC4)OCc4ccccc45)c4ccccc43)c3ccccc3C2(C)C)C(C)(C)c2ccccc21.[I-] [Compound 20, 2-{(1E,3E,5E)-7-[(E)-1-{6-[(6-{3-[4-(3H-Spiro[isobenzofuran-1,4′-piperidin]-1′-yl)butyl]-1H-indol-1-yl}hexyl)amino]-6-oxohexyl}-3,3-dimethylindolin-2-ylidene]hepta-1,3,5-trien-1-yl}-1,3,3-trimethyl-3H-indol-1-ium]
Ki (σ2 receptor [4]): 39.8 ± 4.2 nM
quantum yield ([5]; CHCl3): 39.08%
λem ([5]; CHCl3): 787 nm
λex ([5]; CHCl3): 762 nm
Ki (σ1 receptor [6]): 88.8 ± 15.1 nM

CN(C)c1ccc2c(c1)C(=O)N(c1ccc3ccn(CCCCN4CCC5(CC4)OCc4ccccc45)c3c1)C2=O [Compound 23, 2-{1-[4-(3H-Spiro[isobenzofuran-1,4′-piperidin]-1′-yl)butyl]-1H-indol-6-yl}-5-(dimethylamino)isoindoline-1,3-dione]
Ki (σ2 receptor [4]): 5.07 ± 1.07 nM
σ2 selectivity over σ1 (σ2 receptor [4]): 60 fold
quantum yield ([5]; CHCl3): 1.31%
λem ([5]; CHCl3): 490 nm
λex ([5]; CHCl3): 395 nm
Ki (σ1 receptor [6]): 296 ± 71 nM
signals in MCF7 cells (σ2 receptor [7]): dose-dependent signals
signals in MCF7 cells upon administration of 2 (σ2 receptor [7]): abated

O=C(COc1ccc(C2=[N+]3C(=Cc4ccc(-c5cccs5)n4[B-]3(F)F)C=C2)cc1)Nc1ccc2ccn(CCCCN3CCC4(CC3)OCc3ccccc34)c2c1 [Compound 28, N-{1-[4-(3H-Spiro[isobenzofuran-1,4′-piperidin]-1′-yl)butyl]-1H-indol-6-yl}-2-{4-[5,5-difluoro-7-(thiophen-2-yl)-5H-5λ^4,6λ^4-dipyrrolo[1,2-c:2′,1′-f][1,3,2]diazaborinin-3-yl]phenoxy}acetamide]
λem ([5]; dissolved in CH3OH): 630 ^b nm
λex ([5]; dissolved in CH3OH): 587 ^b nm
Ki (σ1 receptor [6]): > 5000 nM

C[N+]1=C(/C=C/C=C/C=C/C=C2/N(CCCCCC(=O)Nc3ccc4ccn(CCCCN5CCC6(CC5)OCc5ccccc56)c4c3)c3ccccc3C2(C)C)C(C)(C)c2ccccc21.[I-] [Compound 30, 2-[(1E,3E,5E)-7-{(Z)-1-[6-({1-[4-(3H-Spiro[isobenzofuran-1,4′-piperidin]-1′-yl)butyl]-1H-indol-6-yl}amino)-6-oxohexyl]-3,3-dimethylindolin-2-ylidene}hepta-1,3,5-trien-1-yl]-1,3,3-trimethyl-3H-indol-1-ium]
Ki (σ2 receptor [4]): 39.4 ± 6.1 nM
σ2 selectivity over σ1 (σ2 receptor [4]): ~10 fold
quantum yield ([5]; CHCl3): 40.24%
λem ([5]; CHCl3): 787 nm
λex ([5]; CHCl3): 762 nm
Ki (σ1 receptor [6]): 569 ± 85 nM

CC1CCN(CCOc2ccc(Cl)cc2)CC1 [Compound 31, 1-[2-(4-chlorophenoxy)ethyl]-4-methylpiperidine]
Ki (σ2 receptor [1]; read-out: Ki at the σ2 receptor): 239 nM
